“Also recorded” adds a separate entry of the source.
Assays:
[1] = Survival after lethal irradiation (10 Gy); assay type: in vivo, mice (strain ICR); conditions: 200 nmol s.c. 24 h before 10 Gy; FIG. 37
Description: Preparations (200 nmol of active substance) were applied to mice (strain ICR, female, 3 months of age, 10 mice per group) by s.c. route 24 h before irradiation (radiation dose of 10 Gy from a ^60Co gamma-ray source at a dose rate of 0.285 Gy/min). PBS and empty liposome served as negative controls, free and liposomal muramyl dipeptide (MDP) served as positive controls.

[2] = system: GM-CFC progenitors in bone marrow; assay: GM-CFC recovery, test compounds before sub-lethal irradiation; assay type: in vivo, ICR/CD-1 mice; conditions: s.c. 100 nmol 24 h before 6 Gy, day 13, FIGS. 33-35
Description: (§1) Institite of Cancer Research (ICR/CD-1) mice (female, age of 3 months, 3-4 per group) were stimulated by s.c. administration of test compounds (volume of 200 μl, 100 nmol per dose) 24 h before sublethal γ-irradiation (6 Gy, ^60Co γray source Chisostat, Chirana Ltd., Czech Republic, at a dose of 0.285 Gy/min.). Mice were sacrified at day 13 and recovery of GM-CFC in femour was assayed by counting of colonies (CFC) formed after cultivation in medium. Non-irradiated mice were used as control for normal GM-CFC count in femour. PBS and empty liposomes were used as controls for spontaneous recovery. Liposomal MDP was used as reference standard.
(§2) The following parameters of hemopoiesis were evaluated: • a) Blood leukocyte counts and bone marrow cellularity. Blood leukocytes (samples of blood drawn from an incision of the tail vein) and nucleated cell elements of the femoral bone marrow (femoral diaphyses flushed with saline) were estimated by means of Coulter Counter (Model ZN, Coulter Electronics). • b) Colony-forming cells in spleen. Endogenous spleen colony-forming units (E-CFUs) were measured on day 9 post the whole-body irradiation with 6.5 Gy (5 mice per group) according to Till and McCulloch. • c) GM-CFC progenitors in bone marrow. Femoral bone marrow cells were obtained from mice by flushing the femour with sterile IMDM medium. Harvested cells were calculated and diluted to 1.5×10^5 cells/ml and plated in triplicate in a semisolid environment created by plasma clot (Iscovess modification of Dulbecco's medium, 20% of fetal calf serum, 10% of colony-stimulating factor, 10% of citrate plasma, and CaCl2 1.5 mg/ml). The cultures were incubated for 7 days at 37° C. in 5% CO2. Colonies of at least 50 cells were scored at 40× magnification.
Statistical significance between individual experimental groups of mice in hemopoietic parameters was calculated by one-way analysis of variance. The Newman-Keuls test for comparison of all pairs of columns and the Dunnett test for comparison of all columns with the control column were used in the analysis.

[3] = system: granulocyte-macrophage progenitor cells (GM-CFC); assay: Colony stimulating activity (CSA) of serum on GM-CFC; assay type: in vivo, mouse; conditions: liposomal compounds; FIG. 32
Description: Determination of Colony stimulating activity (CSA) and co-stimulating activity (CoSA) in serum: Blood was taken at intervals from 5 to 48 h after injection of the test compounds, and the ability of the sera from treated mice to stimulate in vitro growth of colonies from granulocyte-macrophage progenitor cells (GM-CFC) was determined. CoSA was determined as the ability of tested compounds, sera of treated mice, or conditioned medium from cultures of adherent stromal cells to enhance the number of GM-CFC colonies induced by a sub-optimal concentration of rmIL-3 in the above-described GM-CFC assay. The concentration of rmIL-3 was adjusted to a value which yielded one third of the maximum number of colonies on a dose-dependent curve.

[4] = system: r-hsp90 (Candida albicans hsp90) specific IgG antibodies; assay: Proteoliposome vaccine against C. albicans hsp90: antibody (humoral) response, ELISA; assay type: in vivo, BALB/c mice; conditions: Experiment 12.2; liposomal compound (5%) + Ni-HSP90, boost day 14; FIG. 13
Description: (§3) Proteoliposomes were prepared by coupling recombinant hsp90 antigen (r-hsp90, 6×HISTag) via a metal chelating lipid to liposomes containing muramyl glycopeptide derivatives as adjuvant component. BALB/c […] mice 4 to 5 weeks old (female 20±2 g, 5 animal per group) were immunized by the intradermal route either with 20 μg of free or liposomal r-hsp90 (volume of 60 μl) either with or without L18-norAbu-MDP and boosted 21 days later by the same composition of experimental vaccine. FCA was used as positive control r-hsp90. Liposomal vaccine composition 20 μg of rHSP90 antigen, 5% metallochelating lipid, 5% particular MT analogue, 90% phospolipids.
Blood samples were collected from the tail vein into heparinised capillary PCV tubes. After centrifugation, the upper part of the tube, containing […] blood serum, was cut off, thrown into […] diluting solution and thoroughly shaken. Thus, a basic dilution of 1:33 was obtained. The pre-diluted sera were kept at −20° C. Blood samples were collected before the first immunization, 2 weeks thereafter and subsequently at weekly intervals up to the 4th week after the second immunisation. Specific IgG antibodies in blood serum samples were determined by the standard indirect ELISA procedure. The data obtained were processed statistically using the non-parametric Mann-Whitney U-test.
Proteoliposomes with muramyl glycopeptide derivatives were prepared as described above, but the boost was carried out already after 14 days. The liposomal vaccine composition was as for Experiment Set 1: 20 μg of rHSP90 antigen, 5% metallochelating lipid, 5% particular MT analogue, 90% phospolipids.
Controls: Aluminum hydroxide (AlOH) and Freund complete adjuvans (FCA) were used as positive controls. PBS with empty liposomes was used as negative control (control). Humoral response was tested at day 14 after vaccination (post priming) and at day 20 after vaccination (post booster). Antibody titres were wer assayed by ELISA.

[5] = rabbits, liposomal preparations s.c. 100 nmol/kg, 3 rabbits per group; passes if below 1.1° C.
Description: The test was conducted in an authorised laboratory, ITEST plus s.r.o., Bilé Vchýnice 10, 533 13 Vápno u Prelouce, Czech Republic, according to guide-lines CL 2005.
Rabbits (New Zeeland albino, 4-6 kg, 3 animals per group) were used for testing.
Liposomal preparations of muramyl glycopeptide derivatives were administered s.c. (100 nmol/kg). Empty liposomes were used as negative control and the liposomal as well as the free form of muramyl dipeptide (MDP) (25 μg/kg, corresponding to 50.7 nmol/kg) served as positive control. Temperature was measured in 1, 2, 3, 4,6 and 24 hour intervals.
Empty liposomes were used as negative control; and liposomal as well as free muramyl dipeptide (MDP) (50.7 nmol/kg) served as positive control. B30-norAbu-MDP (MT01, structure on page 5) served as additional control. Temperature was measured in 1, 2, 3, 4, 6 and 24 h intervals. The preparation passed the test if the Sum of ΔTmax remained below 1.1° C. (3 rabbits per group)

[6] = system: Friend leukemia virus (FLV); assay: Friend leukemia virus infection: survival, TER-119+ cells, spleen; conditions: day 16; FIG. 24
[7] = system: Salmonella enteritidis; assay: Stimulation of innate immunity against Salmonella Enteritidis; conditions: for protective effect / survival rate in S. Enteritidis infection: 0 or 1 case of death by day 12; for Day 6 Intest.: clear/infected/dead / Day 6 Liver: clear/infected/dead / Day 6 Lungs: clear/infected/dead / Day 6 Spleen: clear/infected/dead / Day 12 Intest.: clear/infected/dead / Day 12 Liver: clear/infected/dead / Day 12 Lungs: clear/infected/dead / Day 12 Spleen: clear/infected/dead: liposomal, 20 nmol per dose p.o. 72 and 24 h before infection (LD50), 5 mice
[8] = system: NK-sensitive YAC1 target cells; assay: NK cell-mediated cytotoxicity of spleen mononuclear cells, 51Cr-release against YAC1; conditions: FLV-inoculated mice, day 16, 18 h incubation with YAC1; FIG. 26
[9] = system: NK sensitive K562 cell line; assay: NK cell cytotoxicity of human PBMC, 51Cr-release against K562; assay type: cell-based; conditions: for dose response of NK cell activity: range 0.1 μM-100 μM, FIG. 28
Description: Ex vivo effects of test compounds on NK cells were evaluated on human peripheral blood mononuclear cells (PBMC). The NK cell cytotoxicity of healthy donors in the presence or absence of test compounds was measured in standard 4 hrs ^51Cr-release assay against NK sensitive K562 cell line in effector (PBMC) to target (K562) ratio 16:1. Test compounds were added at a concentration of 10^−7 mol/ml.
Testing of compounds 23, 24, 32, 33, 40 and 41 for their capacity to induce cell-mediated cytotoxicity of human eripheral blood mononuclear cells (PBMCs) is shown in FIGS. 27 and 28. All donors were healthy. […] The cytotoxicity of untreated controls (30.5%) was renormalized to 100%.

[10] = system: IFN-γ production in splenocytes stimulated by rHSP90; assay: Proteoliposome vaccine against C. albicans hsp90: cellular response (IFN-γ in splenocytes stimulated by rHSP90); assay type: in vivo, BALB/c mice; conditions: Experiment 12.3; liposomal compound (5%) + Ni-HSP90, day 20; FIG. 14
Description: as §3
Production of INF-γ was mesured by standard ELISPOT assay (R&D, USA). Immunised mice were sacrified 4 weeks after booster imunisation and splenocytes were isolated, and stimulated by r-hsp90 (50 μg/ml) and spots were counted.
Proteoliposomes with muramyl glycopeptide derivatives were prepared as described above. Experimental conditions were as for Experiment 12.2.
Cell mediated immune response against rHSP90 antigen formulated in liposomal experimental vaccine was tested at day 20 (6 days after booster). Mice were sacrificed, splenocytes were purified and production of IFN-γ in splenocytes stimulated by rHSP90 was assayed by flow cytometry.

[11] = system: GM-CFC progenitors in bone marrow; assay: GM-CFC recovery, test compounds after sub-lethal irradiation; assay type: in vivo, ICR/CD-1 mice; conditions: s.c. 100 nmol 24 h after 6 Gy; FIG. 36
Description: as §1, §2
The method is exactly as described above except that the test compounds (volume of 200 μl, 100 nmol per dose) were administered 24 h after sublethal γ-irradiation (6 Gy).

| Compound | GM-CFC stimulating activity (CSA) in serum [3] | antibody response to r-hsp90 proteoliposomes [4] | +ΔTmax (Sum of ΔTmax) [5] [°C] | protective effect / survival rate in S. Enteritidis infection [7] | Day 6 Intest.: clear/infected/dead [7] | Day 6 Liver: clear/infected/dead [7] | Day 6 Lungs: clear/infected/dead [7] | Day 6 Spleen: clear/infected/dead [7] | Day 12 Intest.: clear/infected/dead [7] | Day 12 Liver: clear/infected/dead [7] | Day 12 Lungs: clear/infected/dead [7] | Day 12 Spleen: clear/infected/dead [7] | NK cell activity (cell-mediated cytotoxicity of SMCs) [8] | dose response of NK cell activity [9] | further results |
| --- | --- | --- | --- | --- | --- | --- | --- | --- | --- | --- | --- | --- | --- | --- | --- |
| CCCCCCCCCCCCCCCCCC(=O)NCCCC[C@H](NC(=O)CC[C@@H](NC(=O)[C@H](CC)NC(=O)CO[C@H]1[C@H](O)[C@@H](CO)OC(O)[C@@H]1NC(C)=O)C(N)=O)C(=O)O (stereo partly drawn) [Compound 32, N-[2-O-(2-Acetamido-2,3-dideoxy-α-D-glucopyranosid-3-yl)-glycoloyl]-L-α-aminobutanoyl-D-isoglutaminyl-L-lysine(stearoyl)] | substantially better | strong and comparable to AlOH | 0.5 | good protective effects | 5/0/0 | 3/2/0 | 4/1/0 | 3/2/0 | 2/3/0 | 1/4/0 | 4/1/0 | 1/4/0 | stimulate NK cell functional activity | negative dose response | survival of lethally irradiated mice [1]: best compound; also recorded: best performance; GM-CFC progenitor cells in bone marrow [2]: strongest effect; GM-CFC progenitor cells in bone marrow ([2]; listed as compound 32): best compound; clonal expansion of TER-119+ erythroleukaemia cells in spleen [6]: dose-dependent, positive effect; lag time to reach full NK stimulating activity ([9]; no vs 18 h pre-incubation): most pronounced |
| CCCCCCCCCCCCCCC(CCCCCCCCCCCCCC)C(=O)NCCCC[C@H](NC(=O)CC[C@@H](NC(=O)[C@H](CC)NC(=O)CO[C@H]1[C@H](O)[C@@H](CO)OC(O)[C@@H]1NC(C)=O)C(N)=O)C(=O)O (stereo partly drawn) [Compound 33, N-[2-O-(2-Acetamido-2,3-dideoxy-α-D-glucopyranosid-3-yl)-glycoloyl]-L-α-aminobutanoyl-D-isoglutaminyl-L-lysine(2-tetradecylhexadecanoyl)] | no effect | strong and comparable to AlOH | 0.4 | good protective effects | 5/0/0 | 5/0/0 | 5/0/0 | 2/3/0 | 2/2/1 | 1/3/1 | 2/2/1 | 1/3/1 | partially 33, had an inhibitory effect | positive dose response | cell-mediated response to r-hsp90 proteoliposomes [10]: good results; GM-CFC progenitor cells in bone marrow [11]: strongest performers |
